Laboratory results reported in patent publication US20260193116A1, “MEMBRANE TREATMENT METHOD, BIOFOULING INHIBITION METHOD, AND ENDOTOXIN PRODUCTION INHIBITION METHOD IN WATER SYSTEM” (KURITA WATER INDUSTRIES LTD., priority 2022, published 2026).

Assays:
[1] = tested on: biofouling of RO membrane (MFS cell); assay: MFS water flow test (Example 1): differential pressure increase of the RO membrane cell
[2] = tested on: bacterial flora in a biofilm attached to a RO membrane surface; assay: Bacterial flora analysis (16S rRNA amplicon) of biofilm attached to RO membrane surface after water flow test (Example 2)
[3] = tested on: biofouling of RO membrane (MFS cell); assay: MFS water flow test (Example 3): differential pressure increase of the RO membrane cell; settings: citric acid + ammonium chloride + sodium phosphate, 35° C., 0.36 mg/L as Cl2 (DPD method), Continuous addition

## O=S(=O)(O)NCl.[Na] [Chlorosulfamic acid, sodium monochlorosulfamic acid]
[1]
  Differential pressure suppression effect vs Control: 102%
[2]
  (Negative bacteria/[negative bacteria + positive bacterial]) (%): 18.2%
  Acidovorax existence ratio in bacterial flora: 0.1%
  Azotobacter existence ratio in bacterial flora: 0.4%
  Cupriavidus existence ratio in bacterial flora: 4.6%
  Dominant bacteria in the biofilm (in words): Mycolicibacterium genus bacteria and Mycobacterium genus bacteria, which are gram-positive bacteria, were dominant
  Gram-negative bacteria (%): 16.7%
  Gram-negative bacteria Others existence ratio in bacterial flora: 6.5%
  Gram-positive bacteria existence ratio in bacterial flora: 75.1%
  Pseudomonas existence ratio in bacterial flora: 4.8%
  Ralstonia existence ratio in bacterial flora: 0.3%
  Unknown bacteria existence ratio in bacterial flora: 8.2%
[3]
  Differential pressure suppression effect vs Control: 95%
